Data on four compounds can be found in patent US10307418B2, “Azole pharmaceutical formulations for parenteral administration and methods for preparing and using the same as treatment of diseases sensitive to azole compounds” (Platform Brightworks Two, Ltd., priority 2010, dated 2019).

Each structure is given as a SMILES string. Converted amounts (≈) assume the structure as drawn. Read-outs that look alike come from different tables or passages of the source.

As usually defined, the MIC is the lowest concentration found to suppress growth.

Data set [1] can be described thus: Maximum solubility of ITZA and azole analogues in solvents (HPLC). It counts as physicochemical. The conditions noted are these: for solubility at 30 min: organic solvent or mixture, thermodynamic from solid. The method, then: ITZA and its analogues were dissolved in various solvents incubated at 37° C. for 30 minutes, cooled down to room temperature, centrifuged at 14,000 rpm for 1 min. The supernatant was analyzed using HPLC to determine the maximum solubility of ITZA and its azole analogues.
In a first step the maximum ITZA solubility in various single solvents was determined. To this end, ITZA and its analogs were dissolved in various solvents, incubated at 37° C. for 30 minutes, cooled down to room temperature, centrifuged at 14,000 rpm for 1 min. The supernatant was analyzed using HPLC to determine the maximum solubility of the respective agent.
The solubility of ITZA was determined in several individual vehicles. Briefly, a known amount of ITZA drug, formulated as a powder (Sigma Inc., St Louis, Mo.), was equilibrated in the respective solvent at RT over 1-4 hours. An aliquot was removed, filtered, and prepared for HPLC to determine maximum solubility at room temperature. Based on the ITZA solubility in each vehicle, different solvents were mixed according to the cosolvency principle in an attempt to arrive at an enhanced stable solubility. […] The stock formulation was then diluted with a final diluent, i.e. NS or D5W or DlOW, to yield a stable use-formulation. The desired range of the final use-formulation was between 1 and 5 mg/mL, as it would result in a final volume that could be safely and conveniently infused intravascularly.
An excess of ITZA as a powder was added to a multitude of chemical solvents (Table 1) at RT. Each mixture was intermittently vortexed, placed in a dark environment and checked visually for up to 4 hours for evidence of solubilization. Following centrifugation to remove solid particles, small samples were withdrawn after consecutive time intervals and the ITZA concentration was determined by HPLC as described.

Data set [2] relates to Candida cruzei (ATCC strain 6258). Briefly: Yeast susceptibility test, MIC (CLSI standard). The conditions noted are these: tested range 38 μg/mL to 0.03 μg/mL, read out at 24 hours, average of three experiments. It is filed as cell-based. The method, then: (§1) Briefly, susceptibility tests were set-up using a standardized methodology (CLSI […] standard). Drugs were diluted into RPMI-Mops medium (Yeast One Broth (Sensititer, product Y3462, Trek Diagnostic Systems, Cleveland, Ohio) Sensititer Lot number 151416SA-expiration date 2011-01). Two different strains of yeast were tested, the standardized evaluation/read out was performed at 24 hours after the start of each culture. The tests were repeated twice and all MIC (minimum inhibitory concentration) values are reported as an average of the three experiments.

Data set [3] relates to Candida parapsilosis. Briefly: Yeast susceptibility test, MIC (CLSI standard). It is filed as cell-based. The following applies: tested range 38 μg/mL to 0.03 μg/mL, read out at 24 hours, average of three experiments. The method, then:
as §1

Data set [4] relates to Aspergillus fumigatus (ATCC strain 90906). Put plainly: Mold susceptibility test, MIC (CLSI M38A). It counts as cell-based. Here is the method:
(§2) Two hyaline molds were tested with a standard read out at 48 hrs:
(§3) Tested drug range: 75 μg/mL to 0.07 μg/mL
(§4) To further determine the antifungal activity of the compounds in the new formulation systems we investigated the efficacy of the various agents against additional strains of mucor and Aspergillus (9/-16-9/20/2010) (The Rhizomucor was a clinical isolate from a patient isolate) and the Aspergillus fumigatus (ATCC strain 90906) used was a repeat from the previously described experiment. Again, the susceptibility tests were set-up using the standardized test method (CLSI M38A). The used drugs were provided in the described H3 final use-formulation that has been previously described. All drugs were diluted in RPMI-Mops medium (YeastOne, Sensititer Lot 151416SA, expiration date January 2011).
As before two different molds were tested with a standard read out at 48 hr: • Drug dilution range 75 μg/mL to 0.07 μg/mL. • Aspergillus fumigatus (ATCC strain 90906) Zygomycete (Clinical Lab isolate, MDACC) […]

Data set [5] has as its system Aspergillus fumigatus (Clinical Lab isolate). Briefly: Mold susceptibility test, MIC. It is filed as cell-based. The following applies: tested range 75 μg/mL to 0.07 μg/mL, read out at 48 hrs. The method, then: as §2, §3, §1
The test system of data set [6] is Zygomycete (Clinical Lab isolate, MDACC). Put plainly: Extended mold testing, MIC (CLSI M38A). The following applies: H3 final use-formulation, range 75 μg/mL to 0.07 μg/mL, 48 hr. It is filed as cell-based.
Source text: as §4
As before two different molds were tested with a standard read out at 48 hr: • Drug dilution range 75 μg/mL to 0.07 μg/mL. • Aspergillus fumigatus (ATCC strain 90906) Zygomycete (Clinical Lab isolate, MDACC)

Where [7] appears, read: solvent H3D (no benzyl alcohol), single determination, read-out: Azole solubility, [Drug] mg/mL.
Where [8] appears, read: solvent H3D (no benzyl alcohol), read-out: Azole solubility, Average mg/mL.
The mark [9] stands for this setting: solvent H3G (no benzyl alcohol), single determination, read-out: Azole solubility, [Drug] mg/mL.
[10] abbreviates: solvent H3G (no benzyl alcohol), read-out: Azole solubility, Average mg/mL.
Where [11] appears, read: solvent H3D (no benzyl alcohol), single determination.
[12] abbreviates: solvent H3G (no benzyl alcohol), single determination.
Setting [13] is: extended mold testing (repeat), H3 final use-formulation, range 75 μg/mL to 0.07 μg/mL, 48 hr.
The mark [14] stands for this setting: tested range 75 μg/mL to 0.07 μg/mL, read out at 48 hrs, first experiment.
[15] abbreviates: Aspergillus fumigatus, 48 h, read-out: MIC.

For `OC(Cn1cncn1)(Cn1cncn1)c1ccc(F)cc1F` [FZSA, Fluconazole], the solubility at 30 min in data set [1] (setting [7]) is 38.6 mg/mL (≈ 126000 µM); in data set [1] (setting [8]), 36.1 mg/mL (≈ 118000 µM); in data set [1] (setting [9]), 28.4 mg/mL (≈ 92700 µM); in data set [1] (setting [10]), 30.3 mg/mL (≈ 98900 µM). Besides, the “Azole solubility, [Drug] mg/mL” value in data set [1] (setting [11]) is reported as 33.5 mg/mL; in data set [1] (setting [12]), 32.2 mg/mL. In addition, the MIC result is “all grew” in data set [2]; 1.2 µg/mL (≈ 3.92 µM) in data set [3] (24 h, read-out: MIC); “all grew” in data set [4] (setting [13]); “all grew” in data set [4] (setting [14]); “all grew” in data set [5]; “all grew” in data set [6].
As to `COC(=O)Nc1nc2ccc(C(=O)c3ccccc3)cc2[nH]1` [MBZSA, Mebendazole], the MIC result in data set [2] is “all grew (no drug effect)”; in data set [3], “all grew”; in data set [4] (setting [13]), “all grew (no inhibition)”; in data set [4] (setting [14]), “all grew (no drug effect)”; in data set [5] (setting [15]) it was 5 µg/mL (≈ 16.9 µM); in data set [6], “all grew”.
Regarding `CC(=O)N1CCN(c2ccc(OCC3COC(Cn4ccnc4)(c4ccc(Cl)cc4Cl)O3)cc2)CC1` (stereo not drawn) [KZSA, Ketoconazole], the solubility at 30 min came to 15.4 mg/mL (≈ 29000 µM) in data set [1] (setting [7]), 15.3 mg/mL (≈ 28800 µM) in data set [1] (setting [8]), 14.8 mg/mL (≈ 27800 µM) in data set [1] (setting [9]) and 14.9 mg/mL (≈ 28000 µM) in data set [1] (setting [10]). In addition, the “Azole solubility, [Drug] mg/mL” value in data set [1] (setting [11]) is 15.2 mg/mL; in data set [1] (setting [12]), 15.1 mg/mL. Also, the MIC in data set [2] (Candida, ATCC6258, 24 h, read-out: MIC) was 0.15 µg/mL (≈ 0.282 µM); in data set [3] (24 h, read-out: MIC) it was 0.03 µg/mL (≈ 0.0565 µM); in data set [4] (Aspergillus fumigatus, ATCC90906, 48 h, extended mold testing (repeat), H3 final use-formulation, range 75 μg/mL to 0.07 μg/mL, 48 hr, read-out: MIC), 10 µg/mL (≈ 18.8 µM); in data set [4] (Aspergillus fumigatus, ATCC90906, 48 h, tested range 75 μg/mL to 0.07 μg/mL, read out at 48 hrs, first experiment, read-out: MIC) it was 20 µg/mL (≈ 37.6 µM); in data set [5] (setting [15]), 20 µg/mL (≈ 37.6 µM); in data set [6] (read-out: MIC), 38 µg/mL (≈ 71.5 µM).
Turning to `CCC(C)n1ncn(-c2ccc(N3CCN(c4ccc(OCC5COC(Cn6cncn6)(c6ccc(Cl)cc6Cl)O5)cc4)CC3)cc2)c1=O` (stereo not drawn) [ITZA(ref 2), itraconazole], the MIC in data set [2] stood at 0.3 µg/mL (≈ 0.425 µM); in data set [3], 0.15 µg/mL (≈ 0.213 µM); in data set [4] (setting [13]) it was 0.3 µg/mL (≈ 0.425 µM); in data set [4] (setting [14]), 0.6 µg/mL (≈ 0.85 µM); in data set [5], 0.3 µg/mL (≈ 0.425 µM); in data set [6] it was 2.5 µg/mL (≈ 3.54 µM).
